The values that follow come from patent US20110076261A1, “Antifungal Drug Delivery System” (priority 2007, published 2011).

For series [1] the following is noted: at 25° C.; cited from earlier work.
The text on series [2]: Accordingly, when looking at a particular acid, the percent of ionization of that acid can be determined by the following formula: […]
For series [3] the following is noted: cited from earlier work.

Read-outs that look alike come from different tables or passages of the source.

What is called pKa is the pH at which an ionisable group is half protonated. For the compound `O=C[C@H](O)[C@@H](O)[C@H](O)[C@H](O)C(=O)O` [Glucoronic, glucuronic acid], the pKa in series [1] is 3.28.
As to `O=C(O)c1ccccc1O` [Salicylic, salicylic acid], the percent ionized result in series [2] (in water, pH 2.2) was “approximately 9%”; in series [2] (pH raised to 5), “approximately 99%”. The “pH−pKa value” in series [2] (pH 2.2) is recorded as −0.77; in series [2] (pH 5), 2.03. Further, the “normal pH in water” value in series [3] is on record as 2.2.
For `O=C(O)C(O)c1ccccc1` (centres unmarked) [Mandelic, mandelic acid], in series [1], the pKa is recorded as 3.85.
In the case of `NC(N)=O` [Urea], in series [1], the pKa is reported as 0.10.
